For experiment [1], the system named is PD-L1 expression. Nature of the experiment: PD-L1 promoter-luciferase reporter assay in A549 pGL4.14-PD-L1 cell line. The class given is cell-based. The following applies: Homo sapiens, IFNγ (50 ng/ml) inducer, luminometer, read-out: PD-L1 expression inhibition rate in A549 (%). Here is the method: The PD-L1 promoter gene region was inserted into the pGL4.14-[luc2/Hygro] vector (promega, Madison, WI) in the following way to prepare a promoter-reporter construct for measuring gene transcription activity.
After preparing primer including KpnI and Xhol restriction enzyme sites in PD-L1, PCR (polymerase chain reaction) was performed, and promoter region DNA was separated by performing electrophoresis on an agarose gel. The pGL4.14-[1uc2/Hygro] vector containing firefly luciferase as a reporter gene was treated with the same restriction enzyme, and separated by agarose gel electrophoresis and gel extraction. The pure isolated PD-L1 promoter gene region and the pGL4.14-[luc2/Hygro] vector were reacted at 50° C. for 1 hour using in-fusion DNA ligase (Takara), followed by E. coli transformation to prepare a promoter-reporter construct into which the […] promoter was inserted, which was named pGL4.14-PD-L1.
To measure the transcriptional activity of the PD-L1 gene promoter, A549 cells were transiently transfected with the PD-L1 promoter-reporter construct as follows, and then the luciferase activity of the cell extract was measured.
The DNA-lipofectamine complex was prepared according to the manufacturer's protocol using 0.1 μtg of promoter-reporter construct plasmid and Lipofectamine 2000 reagent (Invitrogen). Opti-MEM medium (Invitrogen) was used in the process of forming a complex between DNA and Lipofectamine 2000. A549 cells were prepared at 2.5×10^5 cells per well (1 ml) in a 12-well plate by checking the number of cells immediately before adding the DNA. The DNA-lipofectamine complex was carefully mixed with A549 cells and reacted in an incubator at 37° C. for 6 hours. Thereafter, the medium was changed to search for transfected cells, and PD-L1-transfected A549 cells were found through a luciferase test. This was named A549 pGL4.14-PD-L1 cell line and the experiment was conducted. IFNγ (50 ng/ml) was used as a PD-L1 inducer.
The A549 pGL4.14-PD-L1 cell line was treated with the pyrimido pyrimidinone derivatives of Example at concentrations of 0.1 μM and 1.0 μM, respectively, and PD-L1 expression inhibition was evaluated using a luminometer. For comparison, the same experiment was performed for GS9973 (Entospletinib) known to have PD-L1 expression inhibitory activity.
The inhibition rate of PD-L1 expression was calculated by Equation 1 below. PD-L1 expression inhibition rate (%)=100−[(A/B)×100] [Equation 1]
wherein, A is a value when treated with a drug, and B is a value when not treated with a drug.
On the technique in general: In a reporter assay the amount or activity of a reporter protein is the signal.

In another experiment the test system is PD-L1. Nature of the experiment: Western-blot analysis of PD-L1 in tumors excised from B16F10 mice. Set-up: species or system mouse. As to conditions: tumors extracted from mice after the in vivo test of Experimental Example 2; FIG. 3. From the text: After the in vivo tumor inhibition test using compound 1-8 of Experimental Example 2, the PD-L1 expression inhibition effect in tumor cells extracted from mice was confirmed through Western-blot analysis. For comparison, the efficacy of inhibiting PD-L1 expression in tumor cells extracted from the control mice was also confirmed through Western-blot analysis.
Proteins were identified with the ChemiDoc™ imaging system (Bio-rad) using a chemiluminescence (ECL) kit (elpis biotec, EBP-1073).

Experiment [2] has as its system PD-L1 expression. The following applies: melanoma model; cited from earlier work.
The test system of a further experiment is melanoma cell. As to conditions: melanoma model; cited from earlier work.
In experiment [3] the test system is cell surface PD-L1 expression. As to conditions: kinase inhibitor library screening, melanoma; cited from earlier work.

Molecules are shown by their SMILES.

The term inhibition denotes the share of the control response that was lost under treatment.

Consider `Cc1ncc(NC(=O)c2cccc(C(F)(F)F)c2)cc1N1Cc2cnc(Nc3ccccc3)nc2N(C)C1=O` [Compound I-1, N-(6-methyl-5-(1-methyl-2-oxo-7-(phenylamino)-1,2-dihydropyrimido[4,5-d]pyrimidin-3(4H)-yl)pyridin-3-yl)-3-(trifluoromethyl)benzamide], for which, in the experiment on PD-L1 expression [1], the inhibition at 0.1 µM was determined as 12.8% and the inhibition at 1 µM was 87.1%.

As for `Cc1ncc(NC(=O)c2cccc(C(C)(C)C)c2)cc1N1Cc2cnc(Nc3ccccc3)nc2N(C)C1=O` [Compound I-2, 3-(t-butyl)-N-(6-methyl-5-(1-methyl-2-oxo-7-(phenylamino)-1,2-dihydropyrimido[4,5-d]pyrimidin-3(4H)-yl)pyridin-3-yl)benzamide], in the experiment on PD-L1 expression [1], the inhibition at 0.1 µM stood at 32.6% and the inhibition at 1 µM amounted to 72.5%.

For `COc1ncc(NC(=O)c2cccc(C(F)(F)F)c2)cc1N1Cc2cnc(Nc3ccccc3)nc2N(C)C1=O` [Compound I-3, N-(6-methoxy-5-(1-methyl-2-oxo-7-(phenylamino)-1,2-dihydropyrimido[4,5-d]pyrimidin-3(4H)-yl)pyridin-3-yl)-3-(trifluoromethyl)benzamide], in the experiment with PD-L1 expression [1], the inhibition at 0.1 µM stood at 29.3% and the inhibition at 1 µM worked out at 92.5%.

With `Cc1ncc(NC(=O)c2ccc(C3=NC(C)(C)CO3)cc2)cc1N1Cc2cnc(Nc3ccccc3)nc2N(C)C1=O` [Compound I-4, 4-(4,4-dimethyl-4,5-dihydrooxazol-2-yl)-N-(6-methyl-5-(1-methyl-2-oxo-7-(phenylamino)-1,2-dihydropyrimido[4,5-d]pyrimidin-3(4H)-yl)pyridin-3-yl)benzamide], in the experiment with PD-L1 expression [1], the inhibition at 0.1 µM was 20.1% and the inhibition at 1 µM is 82.5%.

In the case of `Cc1ncc(NC(=O)c2cccc(C3=NC(C)(C)CO3)c2)cc1N1Cc2cnc(Nc3ccccc3)nc2N(C)C1=O` [Compound I-5, 3-(4,4-dimethyl-4,5-dihydrooxazol-2-yl)-N-(6-methyl-5-(1-methyl-2-oxo-7-(phenylamino)-1,2-dihydropyrimido[4,5-d]pyrimidin-3(4H)-yl)pyridin-3-yl)benzamide], in the experiment with PD-L1 expression [1], the inhibition at 0.1 µM was determined as 19.4% and the inhibition at 1 µM is 81.9%.

As to `COc1ncc(NC(=O)c2cccc(C(C)(C)C)c2)cc1N1Cc2cnc(Nc3ccccc3)nc2N(C)C1=O` [Compound I-6, 3-(t-butyl)-N-(6-methoxy-5-(1-methyl-2-oxo-7-(phenylamino)-1,2-dihydropyrimido[4,5-d]pyrimidin-3(4H)-yl)pyridin-3-yl)benzamide], in the experiment with PD-L1 expression [1], the inhibition at 0.1 µM came to 13.9% and the inhibition at 1 µM amounted to 94.1%.

With `COc1ncc(NC(=O)c2cccc(C3=NC(C)(C)CO3)c2)cc1N1Cc2cnc(Nc3ccccc3)nc2N(C)C1=O` [Compound I-7, 3-(4,4-dimethyl-4,5-dihydrooxazol-2-yl)-N-(6-methoxy-5-(1-methyl-2-oxo-7-(phenylamino)-1,2-dihydropyrimido[4,5-d]pyrimidin-3(4H)-yl)pyridin-3-yl)benzamide], in the experiment with PD-L1 expression [1], the inhibition at 0.1 µM was 13.1% and the inhibition at 1 µM came out at 85.3%.

For `CN1C(=O)N(c2cc(NC(=O)c3cccc(C(F)(F)F)c3)cnc2Cl)Cc2cnc(Nc3ccccc3)nc21` [Compound I-8, N-(6-chloro-5-(1-methyl-2-oxo-7-(phenylamino)-1,2-dihydropyrimido[4,5-d]pyrimidin-3(4H)-yl)pyridin-3-yl)-3-(trifluoromethyl)benzamide], in the experiment with PD-L1 expression [1], the inhibition at 0.1 µM was found to be 60.4% and the inhibition at 1 µM was 97.5%. The “expression of PD-L1 in tumor compared to the control group (Western blot)” value with PD-L1 is “reduced”.

On to `CN1C(=O)N(c2cc(NC(=O)c3cccc(C(C)(C)C)c3)cnc2Cl)Cc2cnc(Nc3ccccc3)nc21` [Compound I-9, 3-(t-butyl)-N-(6-chloro-5-(1-methyl-2-oxo-7-(phenylamino)-1,2-dihydropyrimido[4,5-d]pyrimidin-3(4H)-yl)pyridin-3-yl)benzamide], for which, in the experiment with PD-L1 expression [1], the inhibition at 0.1 µM turned out to be 48.8% and the inhibition at 1 µM turned out to be 97.2%.

Regarding `CN1C(=O)N(c2cc(NC(=O)c3csc(C(C)(C)C)n3)cnc2Cl)Cc2cnc(Nc3ccccc3)nc21` [Compound I-10, 2-(t-butyl)-N-(6-chloro-5-(1-methyl-2-oxo-7-(phenylamino)-1,2-dihydropyrimido[4,5-d]pyrimidin-3(4H)-yl)pyridin-3-yl)thiazole-4-carboxamide], in the experiment on PD-L1 expression [1], the inhibition at 0.1 µM is 67% and the inhibition at 1 µM came to 98%.

Take `CN1C(=O)N(c2cc(NC(=O)c3cccc(C(F)(F)F)c3)cnc2Cl)Cc2cnc(Nc3ccc(O)cc3)nc21` [Compound I-11, N-(6-chloro-5-(7-((4-hydroxyphenyl)amino)-1-methyl-2-oxo-1,2-dihydropyrimido[4,5-d]pyrimidin-3(4H)-yl)pyridin-3-yl)-3-(trifluoromethyl)benzamide]: in the experiment on PD-L1 expression [1], the inhibition at 0.1 µM amounted to 65% and the inhibition at 1 µM stood at 98%.

In the case of `c1cn2cc(-c3ccc4cn[nH]c4c3)nc(Nc3ccc(N4CCOCC4)cc3)c2n1` [GS9973(Entospletinib), Entospletinib, reference compound], in the experiment with PD-L1 expression [1], the inhibition at 0.1 µM amounted to 10.3% and the inhibition at 1 µM was found to be 47.1%.

Turning to `O=c1cc(-c2ccc(O)cc2)oc2cc(O)cc(O)c12` [apigenin], in the experiment on PD-L1 expression [2], the “suppression of PD-L1 expression induced by IFN-γ” value is “significantly suppress”. Besides, the “melanoma cell growth inhibitory effects” value in the experiment with melanoma cell is listed as “melanoma cell growth inhibitory effects”.

For `COc1cc(/C=C/C(=O)CC(=O)/C=C/c2ccc(O)c(OC)c2)ccc1O` [curcumin], the “melanoma cell growth inhibitory effects” value in the experiment on melanoma cell is recorded as “melanoma cell growth inhibitory effects”.

Consider `CNC(=O)c1cc(Oc2ccc(NC(=O)Nc3ccc(Cl)c(C(F)(F)F)c3)c(F)c2)ccn1` [regorafenib], for which the “reduction of cell surface PD-L1 expression level” value in experiment [3] was “more than 50%”.
